Entries after “also recorded” stand apart in the source; their conditions may differ.
Experiments:
CYP2D6 = biological target: T1, CYP2D6 (Homo sapiens, UniProt P10635); assay: CYP-450 interaction study in pooled human liver microsomes, CYP2D6; format: in vitro ADME; conditions: 1 μM
T1 construct: from tissue; host or cells: pooled human liver microsomes
Procedure: CYP-450 interaction studies were conducted in pooled human liver microsomes (FIG. 8). CYP-450 inhibition (%) by compound (II-4) (1 μM) was compared to control inhibitors (1 μM) for the most common CYP-450 isoforms, CYP3A4, CYP2C9, CYP2D6, CYP2C19, and CYP1A2.
CYP-450 interaction studies were conducted in pooled human liver microsomes (FIG. 24). CYP-450 inhibition (%) by compound (II-4) (1 μM) was compared to control inhibitors (1 μM) for the most common CYP-450 isoforms, 3A4, 2C9, 2D6, 2C19, and 1A2.

AKT in OMM 2.5 cells = assay: Western blot of pAKT/AKT in HGF-stimulated metastatic UM cells; format: cell-based, human; conditions: HGF-stimulated OMM 2.5 cells, harvest after 4 hrs
Procedure: REC, Mel 270, OMM 2.5 under Hepatocyte Growth Factor (HGF) or Vascular Endothelial Growth Factor (VEGF) stimulation conditions: Cell lysates were collected in RIPA lysis buffer (50 mM Tris-HCl, pH 7.4, 150 mM NaCl, 2 mM EDTA, 1% Nonidet P-40, 0.1% SDS) with protease 1× inhibitor cocktail (Roche; Indianapolis, Ind.). Lysates were kept on ice and centrifuged at 10,000×g×10 minutes and total protein was measured using the BCA assay (Pierce, Rockford, Ill.). Protein samples were mixed with 4×LDS loading buffer with 2.5% 2-mercaptoethanol (Sigma-Aldrich), heated to 70° C. for 10 minutes, and loaded on NuPAGE 4-12% Bis-Tris gel (Invitrogen, Carlsbad, Calif.). Immunoblotting was performed with nitrocellulose membranes (Bio-Rad, Hercules, Calif.) at 170-mA start and 110-mA end at 25 V for two hours in NuPAGE transfer buffer (Invitrogen) containing 20% methanol. […] Dual-channel infrared scan and quantitation of immunoblots were conducted using the ODYSSEY Sa infrared imaging system with Image Studio (Ver. 3.1.4) (LI-COR).
FIG. 16: Paxillin inhibition reduced pAKT signaling in metastatic UM cells. A, Representative Western Blot of total and phosphorylated paxillin in metastatic UM cells, as in FIG. 4A-B. B, Quantitation from n=3. […] Lysates were measured by Western Blot. […]

VLA-4 = VLA-4 protein levels by flow cytometry in UM cells; format: cell-based, human; conditions: UM cells after treatment
Procedure: Harvested cells were washed and counted. 1.0×10^6 cells were labeled with the following cell surface antibodies: FITC anti-CD54 (ICAM-1, clone HA58, BioLegend), PE anti-CD102 (ICAM-2, clone CBR-IC2/2, BioLegend), PE-Cy7 anti-CD49d (VLA-4, clone 9F10, BioLegend), APC anti-CD106 (VCAM-1, clone STA, BioLegend), PerCP-Cy5.5 anti-CD166 (ALCAM, clone 3A6, BioLegend), Biotin anti-CD326 (EpCAM, clone 1B7, BD Biosciences) using manufacturer's conditions. Cells were incubated in antibody cocktail for 30 minutes on ice followed by two washes with PBS/2% FBS. Second-labeling step was performed using Brilliant Violet 421 Streptavidin (bv421-SA, BioLegend) for 30 minutes on ice followed by two washes as before. […]
Next, it was investigated if reduced numbers were a consequence of a reduction in UM cells proliferation. Cell cultures in the presence or absence of compound (II-4) were analyzed by follow cytometry for cytoskeletal fragmentation and proliferation. […]
FIG. 15: The paxillin inhibitor Compound (II-4) selectively affects cellular proliferation of primary UM cells that become metastatic. […] Unlabeled cells were used to control fluorescence. […] B. Quantitation of experiment +/−SD including primary UM that becomes metastatic (Mel 270), metastatic (OMM 2.1) and primary (92.1) UM cells. *P=0.0007 and **P=0.0005. […] Quantitation of VLA-4 protein levels +/−SD from n=3. […]

T1 sequence (P10635 whole entry): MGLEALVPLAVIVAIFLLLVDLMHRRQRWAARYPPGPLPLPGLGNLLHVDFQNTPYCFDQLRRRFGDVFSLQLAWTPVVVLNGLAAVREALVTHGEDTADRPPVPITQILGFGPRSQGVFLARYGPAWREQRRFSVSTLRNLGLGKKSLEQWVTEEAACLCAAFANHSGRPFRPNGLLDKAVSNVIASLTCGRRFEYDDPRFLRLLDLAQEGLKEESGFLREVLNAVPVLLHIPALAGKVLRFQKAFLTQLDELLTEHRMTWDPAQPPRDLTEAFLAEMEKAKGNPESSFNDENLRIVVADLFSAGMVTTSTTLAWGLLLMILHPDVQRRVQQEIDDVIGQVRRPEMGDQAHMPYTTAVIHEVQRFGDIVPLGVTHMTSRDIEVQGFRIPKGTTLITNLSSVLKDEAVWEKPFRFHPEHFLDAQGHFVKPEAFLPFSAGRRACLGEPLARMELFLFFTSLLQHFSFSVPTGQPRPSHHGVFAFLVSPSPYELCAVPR

## COc1cc(C2OC(=O)Nc3c2ccc2ccccc32)cc(OC)c1OC (stereo not drawn) [compound II-4]
CYP2D6
  CYP-450 inhibition, CYP2D6: lack of significant inhibition; also recorded: lacks significant inhibition
AKT in OMM 2.5 cells
  pAKT/AKT: significant reduction
VLA-4
  VLA-4 protein levels: does not affect VLA-4 protein

Source: patent US9834525B2, “Inhibitors of paxillin function and related compositions and methods” (UNIVERSITY OF TENNESSEE RESEARCH FOUNDATION, priority 2015, dated 2017)
